Reference: US20260248879A1, “METHODS OF USING A GCG/GLP1 CO-AGONIST FOR THERAPY” (ELI LILLY AND COMPANY, priority 2022, published 2026)

Experiments:
patients with T2DM [1] = experiment: Example 1 study: gastric emptying (acetaminophen PK); format: in vivo, human
Description: Acetaminophen is a well-established marker for the rate and extent of gastric emptying. It is rapidly absorbed from the duodenum upon release from the stomach. A delay in gastric emptying is reflected in the alterations to the concentration-time profile of acetaminophen, specifically, decreasing its Cmax and increasing time of maximum observed drug concentration (tmax) without altering the extent (total drug amount) absorbed. An oral solution dose of approximately 1 g acetaminophen is considered to be sufficient for bioanalytical detection and is administered as indicated below in respect of Cohorts 1 and 2. […] Concentrations of acetaminophen are assayed using a validated LC/MS method. Bioanalytical samples collected to measure acetaminophen concentrations are retained for a maximum of 2 years following last patient visit for the study.
In respect of Cohort 1, gastric emptying is assessed at baseline and Days 2 and 79.
In respect of Cohort 2, gastric emptying is assessed at baseline and Days 2 and 107.
The PK parameters of acetaminophen were compared between treatment groups to determine the rate and extent of gastric emptying. Prior to dosing with Compound 1, the PK profiles of acetaminophen on Day −1 were similar between the treatment groups. Within treatment groups, the Cmax of acetaminophen decreased from Day −1 during 12 weeks of multiple dosing with Compound 1. The Cmax of acetaminophen was lowest on Day 2 in both treatment groups. However, the change from baseline Cmax of acetaminophen increased at Day 107.

patients with T2DM [2] = experiment: Example 1 study: adverse events; format: in vivo
Description: Investigators are responsible for monitoring the safety of patients who have entered this study. The investigator is responsible for the appropriate medical care of patients during the study. Investigators document their review of each laboratory safety report. The investigator remains responsible for following, through an appropriate health care option,
AEs that are serious or otherwise medically important, considered related to Compound 1 or the study, or that caused the patient to discontinue Compound 1 before completing the study. The patient is followed until the event resolves, stabilizes with appropriate diagnostic evaluation, or is reasonably explained. The frequency of follow-up evaluations of the AE is left to the discretion of the investigator.
The investigator records all relevant AE and SAE information. After receiving consent from the patient, study site personnel record the occurrence and nature of each patient's preexisting conditions, including clinically significant signs and symptoms of the disease under treatment in the study. Additionally, site personnel record any change in the condition(s) and the occurrence and nature of any AEs.
The investigator interprets and document whether or not an AE has a reasonable possibility of being related to study treatment, or a study procedure, taking into account the disease, concomitant treatment, or pathologies.
A “reasonable possibility” means that there is a potential cause and effect relationship between Compound 1, study device, and/or study procedure and the AE. Planned surgeries should not be reported as AEs unless the underlying medical condition has worsened during the course of the study.
A Serious Adverse Event (SAE) is any AE from this study that results in one of the following: • death • initial or prolonged inpatient hospitalization • a life-threatening experience (i.e., immediate risk of dying) • persistent or significant disability/incapacity • congenital anomaly/birth defect • important medical events that may not be immediately life-threatening or result in death or hospitalization but may jeopardize the patient or may require intervention to prevent one of the other outcomes listed in the definition above.
All AEs occurring after signing the ICF are recorded and assessed for serious criteria.

## CC(C)C[C@H](NC(=O)[C@H](CC(C)C)NC(=O)[C@H](Cc1c[nH]c2ccccc12)NC(=O)[C@H](CCC(=O)O)NC(=O)[C@@H](NC(=O)[C@H](Cc1ccccc1)NC(=O)[C@H](CCC(=O)O)NC(=O)[C@H](CCCCNC(=O)COCCOCCNC(=O)COCCOCCNC(=O)CC[C@H](NC(=O)CCCCCCCCCCCCCCCCCCC(=O)O)C(=O)O)NC(=O)[C@H](C)NC(=O)[C@H](CCCCN)NC(=O)[C@H](CCCCN)NC(=O)[C@H](CCC(=O)O)NC(=O)[C@H](CC(=O)O)NC(=O)[C@H](CC(C)C)NC(=O)[C@H](Cc1ccc(O)cc1)NC(=O)[C@H](CCCCN)NC(=O)[C@H](CO)NC(=O)[C@H](Cc1ccc(O)cc1)NC(=O)[C@H](CC(=O)O)NC(=O)[C@H](CO)NC(=O)[C@@H](NC(=O)[C@H](Cc1ccccc1)NC(=O)[C@@H](NC(=O)CNC(=O)[C@H](CCC(N)=O)NC(=O)C(C)(C)NC(=O)[C@@H](N)Cc1c[nH]cn1)[C@@H](C)O)[C@@H](C)O)C(C)C)C(=O)N[C@@H](CCC(=O)O)C(=O)NCC(=O)NCC(=O)N1CCC[C@H]1C(=O)N[C@@H](CO)C(=O)N[C@@H](CO)C(=O)NCC(N)=O [Compound 1]
Patients with T2DM [1]; Cohort 1, Day 2
  acetaminophen Cmax, Change From Baseline (Est % change): (0.83) %
  acetaminophen tmax, Change From Baseline (Est % change): (1.06) %
Patients with T2DM [1]; Cohort 1, Day 2, Day −1 2.671
  acetaminophen tmax: 1.963 h
Patients with T2DM [1]; Cohort 1, Day 79
  acetaminophen Cmax, Change From Baseline (Est % change): (0.9) %
  acetaminophen tmax: 1.478 h
  acetaminophen tmax, Change From Baseline (Est % change): (0.8) %
Patients with T2DM [1]; Cohort 2, Day 2
  acetaminophen Cmax, Change From Baseline (Est % change): (0.79) %
  acetaminophen tmax, Change From Baseline (Est % change): (0.89) %
  acetaminophen tmax, Change From Baseline, Mean: 0.187 h
Patients with T2DM [1]; Cohort 2, Day 2, Day −1 1.214
  acetaminophen tmax: 1.423 h
Patients with T2DM [1]; Cohort 2, Day 107
  acetaminophen Cmax, Change From Baseline (Est % change): (1.18) %
  acetaminophen tmax: 0.909 h
  acetaminophen tmax, Change From Baseline (Est % change): (0.89) %
  acetaminophen tmax, Change From Baseline, Mean: 0.75 h
Patients with T2DM [2]; in vivo
  SAE reported, MedDRA preferred term: Sarcoidosis
  abdominal pain, number of participants: 1
  abdominal pain, percentage of participants: 5.6%
  constipation, number of participants: 2
  constipation, percentage of participants: 11.1%
  diarrhea, number of participants: 4
  diarrhea, percentage of participants: 22.2%
  eructation, number of participants: 4
  eructation, percentage of participants: 22.2%
  nausea, number of participants: 7
  nausea, percentage of participants: 38.9%
  number of patients treated with study intervention reporting an SAE: 1
  number of patients with TEAEs: 17
  vomiting, number of participants: 5
  vomiting, percentage of participants: 27.8%
Patients with T2DM [2]; whole study
  deaths: No deaths occurred
